IC50 data for 16 compounds are collected here from patent US20250304549A1, “HYDROXYAMIDE DERIVATIVE AND USE THEREOF” (SICHUAN HUIYU PHARMACEUTICAL CO., LTD., priority 2022, published 2025).

In one test the target is LSD1 (Homo sapiens (Human), UniProt O60341). Nature of the test: In vitro enzyme inhibition assay - LSD1 (HTRF). Format: biochemical. On the technique in general: Time-resolved FRET reads energy transfer from a long-lived donor to a nearby acceptor.
Another test concerns the target pan-HDAC. Nature of the test: In vitro enzyme inhibition assay - HDAC (HDAC-Glo I/II), pan-HDAC. The test is classed as biochemical. An outline of the steps:
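Eight compound concentrations (5-fold steps from a 1 mM DMSO stock) tested against pan-HDAC, HDAC1 and HDAC8 with HDAC-Glo I/II reagents, luminescence read-out. Percent inhibition normalized to no-inhibitor and no-enzyme wells; IC50 derived by four-parameter logistic fit.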

For a further test, the target named is HDAC8 (Homo sapiens (Human), UniProt Q9BY41). In words: In vitro enzyme inhibition assay - HDAC (HDAC-Glo I/II), HDAC8. Format: biochemical. As to conditions: read-out: HDAC IC50 (nM) HDAC 8. As for the experimental part:
2. In Vitro Enzyme Inhibition Assay—HDAC
The effect of the compound on the enzymatic activity of pan-HDAC and two isoforms (HDAC1 and HDAC8) was examined using the HDAC-Glo I/II Assay and Screening System assay to assess the level of inhibition of HDAC protease activity and selectivity in each isoform. The proteins and detection reagents were from the HDAC-Glo™ I/II Assay and Screening System (Promega). A 1 mM stock solution of the compound was prepared in DMSO and diluted in a 5-fold gradient to create a series of 8 concentrations, and a specific volume of the highest concentration was diluted 25 times with HDAC Buffer to obtain 4× working solution of the compound. […] The 384-well plate was then read on a multifunctional microplate reader, with the Luminescence channel selected to record Luminescence values (RLU). The inhibition rate was calculated using the following formula: […]
Note: ‘Negative’ refers to the group without the inhibitor; ‘Blank’ refers to the group without the enzyme.
The IC50 value was calculated by fitting the inhibition rate by GraphPad Prism software, employing log (inhibitor) vs. response-Variable Slope (four parameters) model.

The subject of another test is NCI-H1417 cells. In words: In vitro cell inhibition assay - H1417 cell proliferation (CellTiter-Glo). As to conditions: Homo sapiens, NCI-H1417, H1417 small cell lung cancer cell proliferation. The test is classed as cell-based. An outline of the steps:
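Cells exposed to 8 compound concentrations (5-fold dilutions) in BEGM with 10% FBS for 7 days at 37° C., 5% CO2. Viable cells measured by CellTiter-Glo luminescence; inhibition versus no-inhibitor and no-cell controls, IC50 fitted.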
(In general: Cellular ATP, detected with luciferase, serves as a proxy for viable cell number.)

Another test relates to NCI-H69 cells. In words: In vitro cell inhibition assay - NCI-H69 cell proliferation (CellTiter-Glo). The test is classed as cell-based. As to conditions: Homo sapiens, NCI-H69, H69 small cell lung cancer cell proliferation. An outline of the steps:
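Proliferation was assessed after a 7-day compound treatment of cells seeded at 1×10^3 per well. IC50 values came from fitting inhibition rates derived from CellTiter-Glo luminescence.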

Structures can show the parent of a compound that is named as a salt.

Chain of HDAC8 (Q9BY41 whole entry): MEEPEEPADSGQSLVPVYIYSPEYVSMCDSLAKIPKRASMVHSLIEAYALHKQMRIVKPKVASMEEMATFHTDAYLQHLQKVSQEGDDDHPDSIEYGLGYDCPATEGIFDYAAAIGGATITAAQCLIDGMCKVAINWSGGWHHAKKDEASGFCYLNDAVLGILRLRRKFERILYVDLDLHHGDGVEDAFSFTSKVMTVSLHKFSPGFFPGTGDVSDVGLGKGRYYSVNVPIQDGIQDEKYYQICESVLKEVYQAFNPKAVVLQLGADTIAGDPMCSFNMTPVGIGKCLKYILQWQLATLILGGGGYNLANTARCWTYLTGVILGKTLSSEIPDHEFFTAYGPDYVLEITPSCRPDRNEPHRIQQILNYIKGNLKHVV

The term IC50 denotes the concentration that inhibits the measured activity by half. For `N#Cc1ccc(-c2nc(N3CCC(N)CC3)cc(O)c2-c2ccc(OCCCCCCC(=O)NO)c(O)c2)cc1F` [Example 19, 7-(4-(6-(4-aminopiperidin-1-yl)-2-(4-cyano-3-fluorophenyl)-4-hydroxypyridin-3-yl)-2-hydroxyphenoxy)-N-hydroxyheptanamide hydrochloride], the concentration for half-maximal inhibition (IC50) on LSD1 worked out at 0.86 nM; against pan-HDAC, 174 nM; at HDAC8, 221 nM; in the test with NCI-H1417 cells, 2820 nM.

On to `N#Cc1ccc(-c2c(-c3ccc(OCCCCCCC(=O)NO)c(O)c3)cnc(N3CCC(N)CC3)c2C#N)cc1F` [Example 25, 7-(4-(6-(4-Aminopiperidin-1-yl)-5-cyano-4-(4-cyano-3-fluorophenyl)pyridin-3-yl)-2-hydroxyphenoxy)-N-hydroxyheptanamide hydrochloride], for which the concentration for half-maximal inhibition (IC50) against LSD1 amounted to 0.23 nM; against pan-HDAC it was 6.66 nM; on HDAC8, 129 nM; in the test with NCI-H1417 cells it was 50.1 nM.

Consider `N#Cc1ccc(-c2cc(OCc3ccc(/C=C/C(=O)NO)cc3)cc(N3CCC(N)CC3)n2)cc1F` [Example 69, (E)-3-(4-(((2-(4-Aminopiperidin-1-yl)-6-(4-cyano-3-fluorophenyl)pyridin-4-yl)oxy)methyl)phenyl)-N-hydroxyacrylamide formate], for which the concentration for half-maximal inhibition (IC50) on LSD1 was over 1000 nM; at pan-HDAC it was 30.1 nM; at HDAC8 it was 198 nM.

For the compound `COc1ccc(-c2cnc(N3CCC(NCc4ccc(/C=C/C(=O)NO)cc4F)CC3)c(C#N)c2-c2ccc(C#N)nc2)cc1O` [Example 252, (E)-3-(4-(((1-(3′,6-Dicyano-5′-(3-hydroxy-4-methoxyphenyl)-[3,4′-bipyridin]-2′-yl)piperidin-4-yl)amino)methyl)-3-fluorophenyl)-N-hydroxyacrylamide formate], the IC50 is 3.24 nM on LSD1, 1.03 nM on pan-HDAC, 1.86 nM in the test on NCI-H1417 cells and 4.32 nM in the test on NCI-H69 cells.

`COC(=O)c1ccc(-c2c(-c3ccc(OC)c(O)c3)cnc(N3CCC(NCc4ccc(/C=C/C(=O)NO)cc4)CC3)c2C#N)cn1` [Example 253, Methyl (E)-3′-cyano-5′-(3-hydroxy-4-methoxyphenyl)-2′-(4-((4-(3-(hydroxyamino)-3-oxoprop-1-en-1-yl)benzyl)amino)piperidin-1-yl)-[3,4′-bipyridine]-6-carboxylate formate]: the 50% inhibitory concentration (IC50) on LSD1 turned out to be 342 nM; against pan-HDAC, 0.3 nM; with NCI-H1417 cells it was 13.2 nM; with NCI-H69 cells, 5.25 nM.

In the case of `COc1ccc(-c2cnc(N3CCC(NCc4ccc(/C=C/C(=O)NO)cc4)CC3)c(C)c2-c2ccc(C#N)nc2)cc1O` [Example 254, (E)-3-(4-(((1-(6-Cyano-5′-(3-hydroxy-4-methoxyphenyl)-3′-methyl-[3,4′-bipyridin]-2′-yl)piperidin-4-yl)amino)methyl)phenyl)-N-hydroxyacrylamide formate], the IC50 on LSD1 is 35.4 nM; at pan-HDAC it was 0.41 nM; in the test on NCI-H1417 cells, 5.77 nM; with NCI-H69 cells, 4.69 nM.

With `COc1ccc(-c2cnc(N3CCC(NCc4ccc(/C=C/C(=O)NO)cc4)CC3)c(C#N)c2-c2cnc(C#N)cn2)cc1O` [Example 256, (E)-3-(4-(((1-(3-Cyano-4-(5-cyanopyrazin-2-yl)-5-(3-hydroxy-4-methoxyphenyl)pyridin-2-yl)piperidin-4-yl)amino)methyl)phenyl)-N-hydroxyacrylamide formate], the concentration for half-maximal inhibition (IC50) on LSD1 is 28.8 nM; against pan-HDAC it was 0.26 nM; in the test on NCI-H1417 cells it was 8.48 nM; in the test with NCI-H69 cells, 8.63 nM.

As for `COc1ccc(-c2cnc(N3CCC(NCc4ccc(/C=C/C(=O)NO)c(OC)c4)CC3)c(C#N)c2-c2ccc(C#N)nc2)cc1O` [Example 257, (E)-3-(4-(((1-(3′,6-Dicyano-5′-(3-hydroxy-4-methoxyphenyl)-[3,4′-bipyridin]-2′-yl)piperidin-4-yl)amino)methyl)-2-methoxyphenyl)-N-hydroxyacrylamide formate], the concentration for half-maximal inhibition (IC50) on LSD1 amounted to 7.93 nM; at pan-HDAC, 0.59 nM; in the test with NCI-H1417 cells, 7.61 nM; in the test with NCI-H69 cells, 11.2 nM.

For `COc1ccc(-c2cnc(N3CCC(NCc4ccc(/C=C/C(=O)NO)cc4)CC3)c(C#N)c2-c2ccc(C(N)=O)nc2)cc1O` [Example 259, (E)-3′-Cyano-5′-(3-hydroxy-4-methoxyphenyl)-2′-(4-((4-(3-(hydroxyamino)-3-oxoprop-1-en-1-yl)benzyl)amino)piperidin-1-yl)-[3,4′-bipyridine]-6-carboxamide formate], the IC50 against LSD1 was found to be 81.2 nM; at pan-HDAC, 0.25 nM; with NCI-H1417 cells, 7.2 nM; in the test on NCI-H69 cells it was 7.48 nM.

As to `COc1ccc(-c2cnc(N3CCC(NCc4ccc(/C=C/C(=O)NO)cc4)CC3)c(CC#N)c2-c2ccc(C#N)nc2)cc1O` [Example 261, (E)-3-(4-(((1-(6-Cyano-3′-(cyanomethyl)-5′-(3-hydroxy-4-methoxyphenyl)-[3,4′-bipyridin]-2′-yl)piperidin-4-yl)amino)methyl)phenyl)-N-hydroxyacrylamide formate], the IC50 stood at 3.18 nM on LSD1, 1.42 nM against pan-HDAC, 19 nM in the test on NCI-H1417 cells and 8.47 nM in the test on NCI-H69 cells.

For the compound `COc1cc(F)c(-c2cnc(N3CCC(NCc4ccc(/C=C/C(=O)NO)cc4)CC3)c(C)c2-c2ccc(C#N)nc2)cc1O` [Example 262, (E)-3-(4-(((1-(6-Cyano-5′-(2-fluoro-5-hydroxy-4-methoxyphenyl)-3′-methyl-[3,4′-bipyridin]-2′-yl)piperidin-4-yl)amino)methyl)phenyl)-N-hydroxyacrylamide formate], the IC50 against LSD1 worked out at 7.04 nM; at pan-HDAC it was 0.61 nM; in the test with NCI-H1417 cells it was 11.8 nM; in the test with NCI-H69 cells, 11.1 nM.

On to `COc1ccc(-c2ccc(N3CCC(NCc4ccc(/C=C/C(=O)NO)cc4)CC3)c(C#N)c2-c2ccc(C#N)nc2)cc1O` [Example 267, (E)-3-(4-(((1-(3-Cyano-2-(6-cyanopyridin-3-yl)-3′-hydroxy-4′-methoxy-[1,l′-biphenyl]-4-yl)piperidin-4-yl)amino)methyl)phenyl)-N-hydroxyacrylamide formate], for which the IC50 was 7.36 nM against LSD1, 1.93 nM against pan-HDAC, 7.49 nM in the test on NCI-H1417 cells and 13.6 nM in the test on NCI-H69 cells.

Take `COc1ccc(-c2cnc(N3CCC(NCc4ccc(/C=C/C(=O)NO)cc4F)CC3)c(F)c2-c2ccc(C#N)nc2)cc1O` [Example 269, (E)-3-(4-(((1-(6-Cyano-3′-fluoro-5′-(3-hydroxy-4-methoxyphenyl)-[3,4′-bipyridin]-2′-yl)piperidin-4-yl)amino)methyl)-3-fluorophenyl)-N-hydroxyacrylamide hydrochloride]: the IC50 against LSD1 was 193 nM; against pan-HDAC, 0.93 nM; in the test with NCI-H1417 cells, 2.66 nM; with NCI-H69 cells, 1.87 nM.

`COc1cc(F)c(-c2cnc(N3CCC(NCc4ccc(/C=C/C(=O)NO)cc4)CC3)c(F)c2-c2ccc(C#N)nc2)cc1O` [Example 270, (E)-3-(4-(((1-(6-Cyano-3′-fluoro-5′-(2-fluoro-5-hydroxy-4-methoxyphenyl)-[3,4′-bipyridin]-2′-yl)piperidin-4-yl)amino)methyl)phenyl)-N-hydroxyacrylamide formate]: the IC50 against LSD1 came out at 24.8 nM; against pan-HDAC it was 0.32 nM; in the test on NCI-H1417 cells, 4.88 nM; in the test on NCI-H69 cells, 3.24 nM.

Consider `COc1ccc(-c2cnc(N3CCC(NCc4ccc(/C=C(\F)C(=O)NO)cc4)CC3)c(F)c2-c2ccc(C#N)nc2)cc1O` [Example 271, (Z)-3-(4-(((1-(6-Cyano-3′-fluoro-5′-(3-hydroxy-4-methoxyphenyl)-[3,4′-bipyridin]-2′-yl)piperidin-4-yl)amino)methyl)phenyl-2-fluoro-N-hydroxyacrylamide formate], for which the IC50 on LSD1 was 35.1 nM; against pan-HDAC it was 0.83 nM; in the test with NCI-H1417 cells, 2.19 nM; in the test with NCI-H69 cells, 1.8 nM.

On to `COc1ccc(-c2cnc(N3CCC(NCc4ccc(/C=C/C(=O)NO)cc4)CC3)cc2-c2ccc(C#N)nc2)cc1O` [Example 272, ((E)-3-(4-(((1-(6-Cyano-5′-(3-hydroxy-4-methoxyphenyl)-[3,4′-bipyridin]-2′-yl)piperidin-4-yl)amino)methyl)phenyl)-N-hydroxyacrylamide formate], for which the half-maximal inhibitory concentration (IC50) on LSD1 is 25.2 nM; against pan-HDAC, 0.3 nM; in the test with NCI-H1417 cells, 16.8 nM; in the test on NCI-H69 cells it was 13.3 nM.
